Key:
BRAPP = experiment: Postemergence foliar-applied greenhouse weed control, BRAPP; assay type: in vivo, Brachiaria platyphylla (Griseb.) Nash
Text: Seeds or nutlets of the desired test plant species were planted in a soil matrix prepared by mixing a loam or sandy loam soil (e.g., 28.6 percent silt, 18.8 percent clay, and 52.6 percent sand, with a pH of about 5.8 and an organic matter content of about 1.8 percent) and calcareous grit in an 80 to 20 ratio. The soil matrix was contained in plastic pots with a volume of 1 quart and a surface area of 83.6 square centimeters (cm^2). When required to ensure good germination and healthy plants, a fungicide treatment and/or other chemical or physical treatment was applied. The plants were grown for 8-22 days in a greenhouse with an approximate 14 h photoperiod which was maintained at about 29° C. during the day and 26° C. during the night. Nutrients (Peters Excel® 15-5-15 5-Ca 2-Mg and iron chelate) were applied in the irrigation solution as needed and water was added on a regular basis. Supplemental lighting was provided with overhead metal halide 1000-Watt lamps as necessary. The plants were employed for testing when they reached the first through fourth true leaf stage.
Treatments consisted of the acid or esters of 4-amino-3-chloro-5-fluoro-6-(4-chloro-2-fluoro-3-methoxy-phenyl) pyridine-2-carboxylic acid (Compound A), each formulated as an SC (suspension concentrate), and various herbicidal components alone and in combination. Forms of compound A were applied on an acid equivalent basis.
Other herbicidal components were applied on an active ingredient basis and included auxin transport inhibiting (ATI) herbicides chlorflurenol (technical material), chlorflurenol-methyl (technical material), diflufenzopyr (technical material), diflufenzopyr sodium (technical material), flurenol-methyl (technical material) and naptalam (technical material).
Treatment requirements were calculated based upon the rates being tested, the concentration of active ingredient or acid equivalent in the formulation, and a 12 mL application volume at a rate of 187 L/ha.
For treatments comprised of formulated and technical compounds, weighed amounts of the technical materials were placed individually in 25 mL glass vials and dissolved in a volume of 97:3 v/v acetone/DMSO to obtain 12× stock solutions, and measured amounts of the formulated compounds were placed individually in 25 mL glass vials and diluted in a volume of 1.5% (v/v) crop oil concentrate or water to obtain 12× stock solutions. […] Application solutions were prepared by adding an appropriate amount of each stock solution (e.g., 1 mL) and diluted to the appropriate final concentrations with the addition of an appropriate amount of an aqueous mixture of 1.5% (v/v) crop oil concentrate so that the final spray solutions contained 1.25% (v/v) crop oil concentrate. When required, additional water and/or 97:3 v/v acetone/DMSO was added to individual application solutions so that the final acetone and DMSO concentrations of the application solutions being compared were 8.1% and 0.25%, respectively.
All stock solutions and applications solutions were visually inspected for compound compatibility prior to application. Spray solutions were applied to the plant material with an overhead Mandel track sprayer equipped with an 8002E nozzle calibrated to deliver 187 L/ha over an application area of 0.503 m^2 at a spray height of 18 to 20 inches (46 to 50 cm) above average plant canopy height. Control plants were sprayed in the same manner with the solvent blank.
The treated plants and control plants were placed in a greenhouse as described above and watered by sub-irrigation to prevent wash-off of the test compounds. After approximately 3 weeks, the condition of the test plants as compared with that of the untreated plants was determined visually and scored on a scale of 0 to 100 percent where 0 corresponds to no injury or growth inhibition and 100 corresponds to complete kill. […]

LEFCH = experiment: In-water applied (paddy) greenhouse weed control, LEFCH; assay type: in vivo, Leptochloa chinensis (L.) Nees; settings: 20 DAA
Method: Weed seeds or nutlets of the desired test plant species were planted in puddled soil (mud) prepared by mixing a shredded, non-sterilized mineral soil (50.5 percent silt, 25.5 percent clay, and 24 percent sand, with a pH of about 7.6 and an organic matter content of about 2.9 percent) and water at a 1:1 volumetric ratio. The prepared mud was dispensed in 365 mL aliquots into 16-ounce (oz.) non-perforated plastic pots with a surface area of 86.59 square centimeters (cm^2) leaving a headspace of 3 centimeters (cm) in each pot. Mud was allowed to dry overnight prior to planting or transplanting. Rice seeds were planted in Sun Gro MetroMix® 306 planting mixture, which typically has a pH of 6.0 to 6.8 and an organic matter content of about 30 percent, in plastic plug trays. Seedlings at the second or third leaf stage of growth were transplanted into 840 mL of mud contained in 32-oz. non-perforated plastic pots with a surface area of 86.59 cm^2 4 days prior to herbicide application. The paddy was created by filling the headspace of the pots with 2.5 to 3 cm of water. When required to ensure good germination and healthy plants, a fungicide treatment and/or other chemical or physical treatment was applied. The plants were grown for 4-22 days in a greenhouse with an approximate 14 h photoperiod which was maintained at about 29′C during the day and 26° C. during the night. Nutrients were added as Osmocote® (19:6:12, N:P:K+minor nutrients) at 2 g per 16-oz. pot and 4 g per 960-mL 32-oz. pot. Water was added on a regular basis to maintain the paddy flood, and supplemental lighting was provided with overhead metal halide 1000-Watt lamps as necessary. The plants were employed for testing when they reached the second or third true leaf stage.
Treatments consisted of the acid or esters of 4-amino-3-chloro-5-fluoro-6-(4-chloro-2-fluoro-3-methoxy-phenyl)pyridine-2-carboxylic acid (compound A) each formulated as an SC and various herbicidal components alone and in combination. Forms of compound A were applied on an acid equivalent basis.
Other herbicidal components were applied on an active ingredient basis and included auxin transport inhibiting (ATI) herbicides chlorflurenol-methyl (technical material), chlorflurenol (technical material), diflufenzopyr (technical material), dilfufenzopyr sodium (technical material), flurenol-methyl (technical material,) and naptalam (technical material).
Treatment requirements for each compound or herbicidal component were calculated based upon the rates being tested, the concentration of active ingredient or acid equivalent in the formulation, an application volume of 2 mL per component per pot, and an application area of 86.59 cm^2 per pot.
For formulated compounds, a measured amount was placed in an individual 100 or 200 mL glass vial and was dissolved in a volume of 1.25% (v/v) Agri-Dex® crop oil concentrate to obtain application solutions.
For technical grade compounds, a weighed amount was placed in an individual 100 to 200 mL glass vial and was dissolved in a volume of acetone to obtain concentrated stock solutions. […] The concentrated stock solutions obtained were diluted with an equivalent volume of an aqueous mixture containing 2.5% (v/v) crop oil concentrate so that the final application solutions contained 1.25% (v/v) crop oil concentrate.
Applications were made by injecting with a pipetter appropriate amounts of the application solutions, individually and sequentially, into the aqueous layer of the paddy. Control plants were treated in the same manner with the solvent blank. Applications were made so that all treated plant material received the same concentrations of acetone and crop oil concentrate.
The treated plants and control plants were placed in a greenhouse as described above and water was added as needed to maintain a paddy flood. […]

With `COc1c(Cl)ccc(-c2nc(C(=O)O)c(Cl)c(N)c2F)c1F` [Compound A Acid, 4-amino-3-chloro-6-(4-chloro-2-fluoro-3-methoxyphenyl)-5-fluoropyridine-2-carboxylic acid] the “Visual Weed Control (%) Obs” value (BRAPP; 21 DAA, 8.75 gae/ha) was 60%, the “Visual Weed Control (%) Obs” value (LEFCH; 8.75 gae/ha) was 20% and the “Visual Weed Control (%) Obs” value (LEFCH; 17.5 gae/ha) was 0%. The “Visual Weed Control (%) Obs” value (LEFCH; 35 gae/ha) was 30%.
With `COc1c(Cl)ccc(-c2nc(C(=O)OCc3ccccc3)c(Cl)c(N)c2F)c1F` [Compound A Benzyl Ester] the “Visual Weed Control (%) Obs” value (BRAPP; 21 DAA, 4.38 gae/ha) was 70%, the “Visual Weed Control (%) Obs” value (BRAPP; 21 DAA, 8.75 gae/ha) was 75% and the “Visual Weed Control (%) Obs” value (BRAPP; 21 DAA, 17.5 gae/ha) was 95%. For the same compound, the “Visual Weed Control (%) Obs” value (BRAPP; 22 DAA, 8 gae/ha) was 35%, the “Visual Weed Control (%) Obs” value (BRAPP; 22 DAA, 16 gae/ha) was 80% and the “Visual Weed Control (%) Obs” value (LEFCH; 4.38 gae/ha) was 0%. The “Visual Weed Control (%) Obs” value (LEFCH; 8.75 gae/ha) was 20% and the “Visual Weed Control (%) Obs” value (LEFCH; 17.5 gae/ha) was 30%.
